Measurements: ChEMBL document CHEMBL1909046, “DrugMatrix in vitro pharmacology data”

Tests used:
[1] = target: Mitogen-activated protein kinase 3 (Homo sapiens, UniProt P27361); assay: DRUGMATRIX: Protein Serine/Threonine Kinase, ERK1 enzyme inhibition (substrate: Myelin Basic Protein); design: species or system Escherichia coli; conditions: Not Active = under 50% inhibition at 10 µM
[2] = target: T1, Type-2 angiotensin II receptor (Homo sapiens, UniProt P50052); type: cell-based; conditions: cho-k1; also: in other assays of this panel Not Active means under 50% inhibition at 10 µM
T1 sequence (P50052 whole entry): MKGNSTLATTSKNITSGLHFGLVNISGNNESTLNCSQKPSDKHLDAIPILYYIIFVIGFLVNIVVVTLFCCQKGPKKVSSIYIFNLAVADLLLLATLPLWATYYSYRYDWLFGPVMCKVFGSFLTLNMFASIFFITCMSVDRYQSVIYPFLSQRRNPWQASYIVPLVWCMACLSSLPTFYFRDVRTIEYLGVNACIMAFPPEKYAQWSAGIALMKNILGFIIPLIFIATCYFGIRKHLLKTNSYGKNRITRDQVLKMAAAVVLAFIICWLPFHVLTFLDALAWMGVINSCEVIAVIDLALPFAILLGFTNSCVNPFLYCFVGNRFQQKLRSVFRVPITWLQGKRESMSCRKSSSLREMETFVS

Cytochrome P450 3A4 = Cytochrome P450 3A4 (Homo sapiens, UniProt P08684); conditions: bti-tn-5b1-4; also: in other assays of this panel Not Active means under 50% inhibition at 10 µM
Acetylcholinesterase = Acetylcholinesterase (Homo sapiens, UniProt P22303); assay: DRUGMATRIX: Acetylcholinesterase enzyme inhibition (substrate: acetylthiocholine); type: cell-based, HEK293; conditions: hek293; Not Active = under 50% inhibition at 10 µM
[3] = DRUGMATRIX: Platelet-Derived Growth Factor (PDGF) radioligand binding (ligand: [125I] PDGF); type: cell-based; conditions: nih3t3; Not Active = under 50% inhibition at 10 µM
Substance-K receptor = target: T2, Substance-K receptor (Homo sapiens, UniProt P21452); type: cell membranes, CHO, Membrane; conditions: cho; also: in other assays of this panel Not Active means under 50% inhibition at 10 µM
T2 sequence (P21452 whole entry): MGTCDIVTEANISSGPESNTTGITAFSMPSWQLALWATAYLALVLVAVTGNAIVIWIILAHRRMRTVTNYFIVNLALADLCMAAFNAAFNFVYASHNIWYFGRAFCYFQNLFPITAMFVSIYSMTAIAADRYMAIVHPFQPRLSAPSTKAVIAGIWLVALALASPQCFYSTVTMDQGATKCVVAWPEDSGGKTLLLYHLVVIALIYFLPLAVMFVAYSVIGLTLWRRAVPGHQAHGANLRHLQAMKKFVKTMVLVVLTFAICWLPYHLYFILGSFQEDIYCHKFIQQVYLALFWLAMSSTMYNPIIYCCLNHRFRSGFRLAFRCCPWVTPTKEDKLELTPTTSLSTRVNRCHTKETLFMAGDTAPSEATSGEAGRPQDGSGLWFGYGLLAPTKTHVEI

[4] = target: T3, C-C chemokine receptor type 4 (Homo sapiens, UniProt P51679); type: cell membranes, Membrane; conditions: chem-1; also: in other assays of this panel Not Active means under 50% inhibition at 10 µM
T3 sequence (P51679 whole entry): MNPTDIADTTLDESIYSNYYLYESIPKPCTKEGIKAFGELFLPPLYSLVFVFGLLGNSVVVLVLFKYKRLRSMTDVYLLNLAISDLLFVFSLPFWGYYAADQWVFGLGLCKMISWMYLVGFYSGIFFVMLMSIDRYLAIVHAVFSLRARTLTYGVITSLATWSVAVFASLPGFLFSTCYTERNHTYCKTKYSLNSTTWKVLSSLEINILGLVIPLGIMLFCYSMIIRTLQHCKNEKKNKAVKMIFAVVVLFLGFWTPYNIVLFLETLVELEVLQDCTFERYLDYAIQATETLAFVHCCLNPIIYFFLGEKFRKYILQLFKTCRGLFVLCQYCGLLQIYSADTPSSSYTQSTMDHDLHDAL

[5] = DRUGMATRIX: Calcium Channel Type L, Benzothiazepine radioligand binding (ligand: [3H] Diltiazem); type: cell membranes, Rattus norvegicus, Wistar, Brain, Membrane; conditions: Not Active = under 50% inhibition at 10 µM
[6] = target: Tyrosine-protein kinase Fyn (Homo sapiens, UniProt P06241); assay: biochemical; type: cell-based, Insect cells; conditions: insect cells
[7] = target: Aldo-keto reductase family 1 member B1 (Rattus norvegicus, UniProt P07943); type: tissue-based, Lens of camera-type eye
[8] = target: Mitogen-activated protein kinase 1 (Homo sapiens, UniProt P28482); assay: DRUGMATRIX: Protein Serine/Threonine Kinase, ERK2 enzyme inhibition (substrate: Myelin Basic Protein); design: species or system Escherichia coli; conditions: Not Active = under 50% inhibition at 10 µM
[9] = target: T4, Neuropeptide Y receptor type 1 (Homo sapiens, UniProt P25929); type: cell membranes, Membrane; conditions: sk-n-mc; also: in other assays of this panel Not Active means under 50% inhibition at 10 µM
T4 sequence (P25929 whole entry): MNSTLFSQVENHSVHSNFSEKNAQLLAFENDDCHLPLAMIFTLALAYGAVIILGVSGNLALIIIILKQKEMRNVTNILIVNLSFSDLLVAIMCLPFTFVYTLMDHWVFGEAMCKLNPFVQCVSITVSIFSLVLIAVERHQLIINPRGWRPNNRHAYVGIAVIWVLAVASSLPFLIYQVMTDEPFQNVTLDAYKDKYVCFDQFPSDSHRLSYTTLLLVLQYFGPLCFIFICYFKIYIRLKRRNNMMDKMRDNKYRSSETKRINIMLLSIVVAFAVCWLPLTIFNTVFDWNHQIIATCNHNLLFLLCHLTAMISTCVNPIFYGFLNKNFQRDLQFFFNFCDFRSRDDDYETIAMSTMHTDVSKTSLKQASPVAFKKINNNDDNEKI

[10] = DRUGMATRIX: Glutamate, NMDA, Agonism radioligand binding (ligand: [3H] CGP-39653); type: cell membranes, Rattus norvegicus, Wistar, Cerebral cortex, Membrane; conditions: Not Active = under 50% inhibition at 10 µM
[11] = DRUGMATRIX: Glutamate, NMDA, Phencyclidine radioligand binding (ligand: [3H] TCP); type: cell membranes, Rattus norvegicus, Wistar, Cerebral cortex, Membrane; conditions: Not Active = under 50% inhibition at 10 µM
[12] = target: Voltage-gated inwardly rectifying potassium channel KCNH2 (Homo sapiens, UniProt Q12809); conditions: hek293; also: in other assays of this panel Not Active means under 50% inhibition at 10 µM
Voltage-gated inwardly rectifying potassium channel KCNH2, sequence (Q12809 whole entry): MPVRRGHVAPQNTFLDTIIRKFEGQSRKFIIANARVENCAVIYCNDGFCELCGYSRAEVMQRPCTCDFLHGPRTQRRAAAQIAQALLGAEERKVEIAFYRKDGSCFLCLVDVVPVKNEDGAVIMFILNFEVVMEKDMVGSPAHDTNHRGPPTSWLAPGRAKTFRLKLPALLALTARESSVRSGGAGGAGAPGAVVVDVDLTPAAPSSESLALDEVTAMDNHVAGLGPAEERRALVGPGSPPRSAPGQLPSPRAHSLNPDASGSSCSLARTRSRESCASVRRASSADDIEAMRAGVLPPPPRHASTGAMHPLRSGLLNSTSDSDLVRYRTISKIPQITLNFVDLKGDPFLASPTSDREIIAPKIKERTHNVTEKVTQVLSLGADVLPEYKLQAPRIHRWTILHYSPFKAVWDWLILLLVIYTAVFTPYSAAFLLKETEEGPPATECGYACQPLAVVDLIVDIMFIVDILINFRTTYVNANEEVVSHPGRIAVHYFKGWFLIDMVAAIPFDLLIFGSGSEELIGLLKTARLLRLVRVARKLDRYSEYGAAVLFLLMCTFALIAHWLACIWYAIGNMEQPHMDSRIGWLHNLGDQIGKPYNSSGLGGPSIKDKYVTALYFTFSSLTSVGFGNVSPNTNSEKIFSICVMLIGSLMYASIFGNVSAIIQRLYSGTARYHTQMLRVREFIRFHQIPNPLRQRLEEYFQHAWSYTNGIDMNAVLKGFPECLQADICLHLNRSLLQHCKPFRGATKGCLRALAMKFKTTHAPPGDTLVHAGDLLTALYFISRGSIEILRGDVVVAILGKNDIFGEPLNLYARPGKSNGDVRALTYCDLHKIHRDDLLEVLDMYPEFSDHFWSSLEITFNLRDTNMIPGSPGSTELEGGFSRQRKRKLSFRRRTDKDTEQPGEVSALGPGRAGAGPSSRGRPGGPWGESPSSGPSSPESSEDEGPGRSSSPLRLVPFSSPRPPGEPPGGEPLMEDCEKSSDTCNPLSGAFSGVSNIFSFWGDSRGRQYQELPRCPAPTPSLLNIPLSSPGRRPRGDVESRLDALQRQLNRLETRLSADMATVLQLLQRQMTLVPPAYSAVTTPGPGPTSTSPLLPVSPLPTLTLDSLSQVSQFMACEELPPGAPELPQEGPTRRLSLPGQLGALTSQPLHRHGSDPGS

Mitogen-activated protein kinase 1, sequence (P28482 whole entry): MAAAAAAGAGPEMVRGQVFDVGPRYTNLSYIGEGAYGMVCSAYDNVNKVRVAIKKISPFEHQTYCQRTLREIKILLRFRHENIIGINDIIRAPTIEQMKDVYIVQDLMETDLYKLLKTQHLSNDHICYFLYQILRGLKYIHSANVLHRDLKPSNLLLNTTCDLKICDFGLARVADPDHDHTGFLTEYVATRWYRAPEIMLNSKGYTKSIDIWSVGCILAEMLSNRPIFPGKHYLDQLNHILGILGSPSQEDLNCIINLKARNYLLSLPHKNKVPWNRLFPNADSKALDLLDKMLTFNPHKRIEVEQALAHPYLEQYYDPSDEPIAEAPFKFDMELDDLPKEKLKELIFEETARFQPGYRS
Cytochrome P450 3A4, sequence (P08684 whole entry): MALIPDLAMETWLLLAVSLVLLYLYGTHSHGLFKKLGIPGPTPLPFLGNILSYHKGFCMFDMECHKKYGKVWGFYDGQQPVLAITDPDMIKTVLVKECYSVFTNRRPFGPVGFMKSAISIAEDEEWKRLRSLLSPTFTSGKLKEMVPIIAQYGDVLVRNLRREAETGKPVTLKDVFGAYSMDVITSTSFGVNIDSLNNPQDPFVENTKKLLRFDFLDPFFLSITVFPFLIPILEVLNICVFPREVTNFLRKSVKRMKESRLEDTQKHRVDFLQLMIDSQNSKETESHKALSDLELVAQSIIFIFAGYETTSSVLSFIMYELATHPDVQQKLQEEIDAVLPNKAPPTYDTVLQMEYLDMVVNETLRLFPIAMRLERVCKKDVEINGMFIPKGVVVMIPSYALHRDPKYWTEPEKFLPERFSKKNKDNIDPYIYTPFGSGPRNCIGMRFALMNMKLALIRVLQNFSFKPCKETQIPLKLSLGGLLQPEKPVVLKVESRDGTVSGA
Mitogen-activated protein kinase 3, sequence (P27361 whole entry): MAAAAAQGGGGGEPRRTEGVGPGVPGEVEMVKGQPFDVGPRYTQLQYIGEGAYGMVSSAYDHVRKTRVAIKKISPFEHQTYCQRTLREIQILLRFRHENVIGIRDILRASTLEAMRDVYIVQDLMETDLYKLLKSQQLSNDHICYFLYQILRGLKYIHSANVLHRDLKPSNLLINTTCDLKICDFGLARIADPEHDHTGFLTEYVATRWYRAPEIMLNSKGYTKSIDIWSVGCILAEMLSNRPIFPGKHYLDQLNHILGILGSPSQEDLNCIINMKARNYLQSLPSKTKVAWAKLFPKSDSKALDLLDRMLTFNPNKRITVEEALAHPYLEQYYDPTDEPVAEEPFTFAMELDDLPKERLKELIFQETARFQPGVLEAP
Acetylcholinesterase, sequence (P22303 whole entry): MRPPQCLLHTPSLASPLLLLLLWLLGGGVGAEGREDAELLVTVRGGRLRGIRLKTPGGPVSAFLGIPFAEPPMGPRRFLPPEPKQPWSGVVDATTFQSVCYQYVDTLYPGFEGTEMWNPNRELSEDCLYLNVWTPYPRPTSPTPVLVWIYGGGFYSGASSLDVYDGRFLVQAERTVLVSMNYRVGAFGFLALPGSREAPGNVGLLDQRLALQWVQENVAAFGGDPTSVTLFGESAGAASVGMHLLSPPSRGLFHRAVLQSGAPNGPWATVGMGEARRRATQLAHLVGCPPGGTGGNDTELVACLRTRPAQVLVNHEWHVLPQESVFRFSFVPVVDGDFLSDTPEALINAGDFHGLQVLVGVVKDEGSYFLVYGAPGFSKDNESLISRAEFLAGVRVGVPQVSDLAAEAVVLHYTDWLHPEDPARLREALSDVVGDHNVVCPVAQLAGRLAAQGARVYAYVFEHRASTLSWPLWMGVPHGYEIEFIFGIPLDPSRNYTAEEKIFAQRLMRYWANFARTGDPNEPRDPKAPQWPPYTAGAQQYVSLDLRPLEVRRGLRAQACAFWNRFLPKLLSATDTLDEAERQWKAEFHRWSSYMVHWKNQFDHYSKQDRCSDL
Tyrosine-protein kinase Fyn, sequence (P06241 whole entry): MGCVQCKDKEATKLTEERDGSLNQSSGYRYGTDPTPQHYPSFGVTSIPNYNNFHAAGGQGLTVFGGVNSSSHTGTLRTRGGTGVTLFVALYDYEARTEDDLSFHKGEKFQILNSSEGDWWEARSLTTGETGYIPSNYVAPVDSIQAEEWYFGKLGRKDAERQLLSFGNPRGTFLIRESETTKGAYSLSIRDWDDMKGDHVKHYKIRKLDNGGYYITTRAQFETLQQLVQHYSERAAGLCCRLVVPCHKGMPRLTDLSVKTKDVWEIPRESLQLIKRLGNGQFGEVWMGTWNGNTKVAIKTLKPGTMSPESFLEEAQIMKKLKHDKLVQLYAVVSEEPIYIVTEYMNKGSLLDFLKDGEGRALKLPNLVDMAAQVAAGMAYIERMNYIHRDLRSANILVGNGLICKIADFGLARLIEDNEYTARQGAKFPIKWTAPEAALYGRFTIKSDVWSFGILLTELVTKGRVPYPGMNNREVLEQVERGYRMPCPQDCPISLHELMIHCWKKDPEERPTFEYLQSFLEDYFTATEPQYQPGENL

| SMILES | IC50 [1] | IC50 [2] | IC50 (Cytochrome P450 3A4) | Ki (Cytochrome P450 3A4) | IC50 (Acetylcholinesterase) | IC50 [3] | Ki [3] | IC50 (Substance-K receptor) | IC50 [4] | IC50 [5] | IC50 [6] | IC50 [7] | IC50 [8] | IC50 [9] | IC50 [10] | Ki [10] | IC50 [11] | Ki [11] | IC50 [12] | Ki [12] | other results |
| --- | --- | --- | --- | --- | --- | --- | --- | --- | --- | --- | --- | --- | --- | --- | --- | --- | --- | --- | --- | --- | --- |
| O=C1CN=C(c2ccccc2)c2cc([N+](=O)[O-])ccc2N1 [NITRAZEPAM] | Not Active | Not Active | Not Active | Not Active | Not Active | Not Active | Not Active | Not Active | Not Active | Not Active | Not Active | Not Active | Not Active | Not Active | Not Active | Not Active | Not Active | Not Active | Not Active | Not Active | Ki [5]: Not Active |
| CNCCC=C1c2ccccc2CCc2ccccc21 [NORTRIPTYLINE] | Not Active | Not Active | Not Active | Not Active | Not Active | Not Active | Not Active | Not Active | Not Active | – | Not Active | Not Active | Not Active | Not Active | Not Active | Not Active | Not Active | Not Active | Not Active | Not Active | IC50 ([5]; read-out: IC50): 2800 nM; Ki ([5]; read-out: Ki): 2490 nM |
| Oc1cccc2cccnc12 [OXYQUINOLINE] | Not Active | Not Active | Not Active | Not Active | Not Active | Not Active | Not Active | Not Active | Not Active | Not Active | Not Active | Not Active | Not Active | Not Active | Not Active | Not Active | Not Active | Not Active | Not Active | Not Active | Ki [5]: Not Active |
| CN(C)[C@@H]1C(O)=C(C(N)=O)C(=O)[C@@]2(O)C(O)=C3C(=O)c4c(O)cccc4[C@@](C)(O)[C@H]3[C@H](O)[C@@H]12 [OXYTETRACYCLINE] | Not Active | Not Active | Not Active | Not Active | Not Active | Not Active | Not Active | Not Active | Not Active | Not Active | Not Active | Not Active | Not Active | Not Active | Not Active | Not Active | Not Active | Not Active | Not Active | Not Active | Ki [5]: Not Active |
